pIC50: −log10 of the molar value. Read-outs that look alike come from different tables or passages of the source.
Key:
recombinant human COX-2 = target: T1, recombinant human COX-2 (Homo sapiens, UniProt P35354); experiment: COX Fluorescent Inhibitor Screening Assay Kit, COX-2; assay type: biochemical
T1 construct: purchased Cayman Chemical, Ann Arbor, MI 700100
T1 sequence (P35354 18-604): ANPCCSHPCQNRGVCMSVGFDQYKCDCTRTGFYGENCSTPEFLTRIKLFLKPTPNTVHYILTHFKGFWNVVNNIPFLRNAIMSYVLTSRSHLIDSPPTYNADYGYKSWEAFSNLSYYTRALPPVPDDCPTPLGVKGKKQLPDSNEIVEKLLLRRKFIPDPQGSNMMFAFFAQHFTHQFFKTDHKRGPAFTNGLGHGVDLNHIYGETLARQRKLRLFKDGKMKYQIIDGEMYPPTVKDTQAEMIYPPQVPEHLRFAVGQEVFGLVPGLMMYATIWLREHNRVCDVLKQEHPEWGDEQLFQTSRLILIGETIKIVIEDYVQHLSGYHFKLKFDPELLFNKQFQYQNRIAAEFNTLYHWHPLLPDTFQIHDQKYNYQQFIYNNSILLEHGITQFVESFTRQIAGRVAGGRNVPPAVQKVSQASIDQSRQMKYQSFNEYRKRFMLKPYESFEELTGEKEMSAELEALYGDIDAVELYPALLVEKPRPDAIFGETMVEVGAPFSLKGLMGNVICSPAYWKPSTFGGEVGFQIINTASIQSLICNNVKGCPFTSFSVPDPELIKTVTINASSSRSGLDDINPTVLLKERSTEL

COX-1 = test system: COX-1; parameters: method as in PMID 21900596; details: 14C-based COX assay, previously reported by Uddin et al. ref 21; cited from earlier work
COX-2 = test system: COX-2; parameters: method as in PMID 21900596; details: cited from earlier work
purified ovine COX-1 = target: T2, purified ovine COX-1 (Ovis aries, UniProt P05979); experiment: COX Fluorescent Inhibitor Screening Assay Kit, COX-1
T2 sequence (P05979 25-600): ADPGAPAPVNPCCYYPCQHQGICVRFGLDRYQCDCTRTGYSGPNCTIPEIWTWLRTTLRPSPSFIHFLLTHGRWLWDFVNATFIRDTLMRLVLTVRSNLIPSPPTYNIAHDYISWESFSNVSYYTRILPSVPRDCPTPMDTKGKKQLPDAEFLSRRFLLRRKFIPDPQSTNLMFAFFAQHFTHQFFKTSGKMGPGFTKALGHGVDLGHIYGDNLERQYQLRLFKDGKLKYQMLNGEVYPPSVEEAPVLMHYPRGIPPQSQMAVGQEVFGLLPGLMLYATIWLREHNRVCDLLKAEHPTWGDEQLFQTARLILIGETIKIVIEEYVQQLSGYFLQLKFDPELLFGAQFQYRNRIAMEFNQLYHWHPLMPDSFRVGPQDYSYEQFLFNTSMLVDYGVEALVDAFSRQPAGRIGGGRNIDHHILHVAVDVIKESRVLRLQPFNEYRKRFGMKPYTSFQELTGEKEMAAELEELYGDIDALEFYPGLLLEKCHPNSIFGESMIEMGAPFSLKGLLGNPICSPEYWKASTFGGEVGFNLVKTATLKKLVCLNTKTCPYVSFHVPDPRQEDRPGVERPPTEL
Description: 7.4.1 COX inhibition assay
The COX inhibition potency against ovine COX-1 and human COX-2 was determined using the
fluorescence-based COX assay ’COX Fluorescent Inhibitor Screening Assay Kit‘ (catalog number
reported by us.7 In brief, as a measure of COX mediated conversion of arachidonic acid to PG H2 in the
presence of different inhibitor concentrations this assay utilizes the peroxidase component of COX and
analyzes the formation of fluorescent resorufin. All compounds were assayed in a concentration range
of 10 nM to 100 μM, and every inhibitor concentration was assayed in duplicate.
as internal control. IC50 values were estimated using a nonlinear logistic regression ﬁtting procedure
(sigmoidal dose−response model) with Prism Software.

[1] = target: 3-phosphoinositide-dependent kinase 1 (PDK1); details: cited from earlier work
protein kinase B (PKB) = target: protein kinase B (PKB); parameters: method as in PMID 16757698, PMID 14973075; details: ref 50 and 53; cited from earlier work
[2] = target: phosphodiesterase-5 (PDE51A); parameters: method as in PMID 17383621; details: ref 54; cited from earlier work
[3] = target: sarcoplasmic/ER Ca2+ ATPase (SERCA); parameters: method as in PMID 23875171, PMID 12076251; details: ref 49 and 55; cited from earlier work
hCA-IX = test system: hCA-IX; parameters: method as in PMID 23875171, PMID 16290146; details: ref 49 and 56; cited from earlier work
hCA-XII = test system: hCA-XII; parameters: method as in PMID 23875171, PMID 16290146; details: ref 49 and 56; cited from earlier work
CYP3A4 = test system: CYP3A4; parameters: method as in PMID 10681375, PMID 22336956; details: ref 12,51; cited from earlier work
log D7.4 by HPLC method = assay type: physicochemical; details: HPLC retention on ODP-50 4B column (Shodex Asahipak); pH 7.4, HPLC-based method
[4] = Ex vivo biodistribution in healthy rats; details: for Biodistribution BAT: brown adipose tissue; for Biodistribution WAT: white adipose tissue
[5] = Metabolic stability in vivo: blood clearance, blood components, radiometabolites; parameters: species or system male Wistar rats; details: for half-life: male, Wistar, rat, arterial blood, iv, 70 MBq, i.v., arterial blood samples; for half-life / Intact compound in blood plasma: rats; for Intact compound in blood plasma: radio-HPLC
[6] = Stability towards liver microsomes of mice; details: oxidative conditions plus MgCl2 5 mM, alamethicin 50 μg/mL, UDPGA 5 mM
[7] = parameters: method as in PMID 30072617; details: male baboon, 90 min p.i. ref 18; cited from earlier work
[8] = i.v., 5 min p.i., n = 8, mean ± SD
[9] = i.v., 60 min p.i., n = 8, mean ± SD

Cc1ccc(-c2cc(CF)nn2-c2ccc(S(C)(=O)=O)cc2)cc1 [5a]
pIC50 (recombinant human COX-2): 6.29 | Selectivity index (recombinant human COX-2; IC50 (COX-1)/IC50 (COX-2)): >196 | pIC50 (COX-1): < 5.40 | pIC50 (COX-2; 14C-based COX assay, previously reported by Uddin et al. ref 21): 6.22 | Selectivity index (COX-2; IC50 (COX-1)/IC50 (COX-2), from values previously reported by Uddin et al. ref 21): >7 | pIC50 (purified ovine COX-1): < 4.00

Cc1ccc(-c2cc(C(F)(F)F)nn2-c2ccc(S(N)(=O)=O)cc2)cc1 [Celecoxib]
pIC50 ([1]; ref 52): 5.46 | pIC50 ([1]; ref 53): 4.32 | pIC50 (protein kinase B (PKB)): 4.55 | pIC50 [2]: 4.80 | pIC50 [3]: 4.46 | pIC50 (hCA-IX): 7.80 | pIC50 (hCA-XII): 7.74 | extent of metabolism to the hydroxyl form by CYP3A4 (CYP3A4): < 25%

Cc1ccc(-c2cc(CC[18F])nn2-c2ccc(S(C)(=O)=O)cc2)cc1 [[^18F]5b]
chromatographic logD (log D7.4 by HPLC method): 2.65 | liver-to-bladder ratio (hepatobiliary vs renal excretion) ([4]; 60 min p.i.): 2.6 | Biodistribution BAT [4, 8]: 2.79 ± 0.85 SUV | Biodistribution BAT [4, 9]: 1.12 ± 0.22 SUV | Biodistribution adrenals [4, 8]: 2.95 ± 0.73 SUV | Biodistribution blood [4, 8]: 0.32 ± 0.02 SUV | Biodistribution brain [4, 8]: 0.5 ± 0.1 SUV | Biodistribution femur [4, 8]: 0.6 ± 0.05 SUV | Biodistribution harderian gland [4, 8]: 2.37 ± 0.19 SUV | Biodistribution heart [4, 8]: 0.86 ± 0.07 SUV | Biodistribution intestine [4, 8]: 14.17 ± 1.43 %ID | Biodistribution kidneys [4, 8]: 2 ± 0.42 SUV | Biodistribution liver [4, 8]: 3.37 ± 0.63 SUV | Biodistribution lung [4, 8]: 1.06 ± 0.06 SUV | Biodistribution muscle [4, 8]: 0.63 ± 0.09 SUV | Biodistribution pancreas [4, 8]: 1.6 ± 0.16 SUV | Biodistribution skin & hair [4, 8]: 0.98 ± 0.09 SUV | Biodistribution spleen [4, 8]: 0.84 ± 0.12 SUV | Biodistribution stomach [4, 8]: 1.35 ± 0.6 %ID | Biodistribution testes [4, 8]: 0.47 ± 0.05 SUV | Biodistribution thymus [4, 8]: 1.09 ± 0.23 SUV | Biodistribution thyroid gland [4, 8]: 1.01 ± 0.1 SUV | Biodistribution urine (calc.) [4, 8]: 0.02 ± 1.08 %ID | Biodistribution adrenals [4, 9]: 0.9 ± 0.13 SUV | Biodistribution blood [4, 9]: 0.08 ± 0.02 SUV | Biodistribution brain [4, 9]: 0.09 ± 0.01 SUV | Biodistribution femur (femur uptake, 18F-defluorination) [4, 9]: 1.0 ± 0.2 SUV | Biodistribution harderian gland [4, 9]: 1.08 ± 0.18 SUV | Biodistribution heart [4, 9]: 0.18 ± 0.02 SUV | Biodistribution intestine [4, 9]: 41.52 ± 3.98 %ID | Biodistribution kidneys [4, 9]: 0.57 ± 0.14 SUV | Biodistribution liver [4, 9]: 0.74 ± 0.14 SUV | Biodistribution lung [4, 9]: 0.25 ± 0.04 SUV | Biodistribution muscle [4, 9]: 0.23 ± 0.05 SUV | Biodistribution pancreas [4, 9]: 0.57 ± 0.14 SUV | Biodistribution skin & hair [4, 9]: 0.32 ± 0.09 SUV | Biodistribution spleen [4, 9]: 0.28 ± 0.08 SUV | Biodistribution stomach [4, 9]: 0.94 ± 0.58 %ID | Biodistribution testes [4, 9]: 0.24 ± 0.06 SUV | Biodistribution thymus [4, 9]: 0.23 ± 0.04 SUV | Biodistribution thyroid gland [4, 9]: 0.27 ± 0.06 SUV | Biodistribution urine (calc.) [4, 9]: 15.85 ± 2.16 %ID | Biodistribution WAT [4, 8]: 1.73 ± 0.84 SUV | Biodistribution WAT [4, 9]: 1.81 ± 0.8 SUV | half-life ([5]; read-out: t1/2 distribution (blood clearance of intact compound)): 1 min | half-life ([5]; read-out: t1/2 elimination (blood clearance of intact compound)): 20.7 min | Radioactivity distribution in blood components: erythrocytes ([5]; rat blood, 60 min p.i., + TCA): 23% | Radioactivity distribution in blood components: plasma ([5]; rat blood, 60 min p.i., + TCA): 71% | Radioactivity distribution in blood components: plasma supernatant ([5]; rat blood, 60 min p.i., + TCA): 35% | Radioactivity distribution in blood components: plasma pellet (bound to plasma proteins) ([5]; rat blood, 60 min p.i., + TCA precipitation): 29% | Radioactivity distribution in blood components: erythrocytes ([5]; rat blood, 60 min p.i., - TCA): 21% | Radioactivity distribution in blood components: plasma ([5]; rat blood, 60 min p.i., - TCA): 67% | Radioactivity distribution in blood components: plasma pellet ([5]; rat blood, 60 min p.i., - TCA): 1% | Radioactivity distribution in blood components: plasma supernatant ([5]; rat blood, 60 min p.i., - TCA): 72% | Intact compound in blood plasma ([5]; 20 min p.i.): 35% | Intact compound in blood plasma ([5]; 60 min p.i.): 30% | glucuronidation in murine liver microsomes [6]: not observed

[11CH3]c1ccc(-c2cc(C(F)(F)F)nn2-c2ccc(S(N)(=O)=O)cc2)cc1 [[^11C]celecoxib]
intact radiotracer in blood [7]: 17%

— paper PMC9057277 (RSC Advances, 2020)
